Where two headings read alike, the source gives them in different places.
Experiments:
[1] = target: T1, West Nile Virus (WNV) NS2B-NS3 protease (West Nile virus, UniProt Q9Q6P4); test: WNV protease inhibition assay; type: biochemical; conditions: Table 4; letter codes for IC50
T1 construct: NS2B1423-1470); purchased R&D 2907-SE-020
Source text: WNV protease inhibition assay

[2] = system: ZIKV replicon; test: ZIKV replication inhibition assay (NanoLuc replicon in Vero cells); conditions: 72 h
[3] = Zika virus, Vero, read-out: ZIKA Cell_Nanoluc
[4] = read-out: ZIKA Cell_Nanoluc, Vero cells with stable ZIKV replicon, Nano-Glo readout
[5] = Zika virus, Vero, read-out: ZIKA Cell_Nanoluc, Vero cells with stable ZIKV replicon, 72 h, Nano-Glo readout

T1 sequence (Q9Q6P4 1423-1470): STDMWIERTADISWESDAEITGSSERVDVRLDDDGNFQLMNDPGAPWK
T1 sequence (Q9Q6P4 1506-1689): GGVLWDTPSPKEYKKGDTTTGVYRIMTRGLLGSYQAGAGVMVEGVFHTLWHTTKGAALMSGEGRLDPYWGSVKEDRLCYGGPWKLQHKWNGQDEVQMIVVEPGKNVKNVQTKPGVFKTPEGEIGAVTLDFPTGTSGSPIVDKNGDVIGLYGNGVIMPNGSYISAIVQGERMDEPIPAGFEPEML

Molecule	IC50 [1]	EC50 [2, 3]	EC50 [2, 4]	EC50 [2, 5]
CN(C)C[C@H]1CC[C@H]([n+]2cc([N-]C(=O)Nc3cc(NC(=O)C(F)(F)CN4CCCC4)cc(C(F)(F)F)c3)on2)CC1 [Example 160, ((3-(2,2-Difluoro-3-(pyrrolidin-1-yl)propanamido)-5-(trifluoromethyl)phenyl)-carbamoyl)(3-((1R,4R)-4-((dimethylamino)-methyl)cyclohexyl)-1,2,3-oxadiazol-3-ium-5-yl)amide]	1 to 20 µM	> 20 µM	–	–
CN(C)C[C@H]1CC[C@H]([n+]2cc([N-]C(=O)Nc3cc(NC(=O)Cc4c(F)cccc4Cl)cc(C(F)(F)F)c3)on2)CC1 [Example 198, ((3-(2-(2-Chloro-6-fluorophenyl)acetamido)-5-(trifluoromethyl)phenyl)carbamoyl)(3-((1R,4R)-4-((dimethylamino)methyl)cyclohexyl)-1,2,3-oxadiazol-3-ium-5-yl)amide]	1 to 20 µM	< 0.1 µM	–	–
Cc1ccccc1CC(=O)Nc1cc(NC(=O)[N-]c2c[n+]([C@H]3CC[C@H](C(=O)O)CC3)no2)cc(C(F)(F)F)c1 [Example 229, (3-((1R,4R)-4-Carboxycyclohexyl)-1,2,3-oxadiazol-3-ium-5-yl)((3-(2-(o-tolyl)acetamido)-5-(trifluoromethyl)phenyl)carbamoyl)amide]	0.1 to 1 µM	1 to 20 µM	–	–
((3-(2-(3-(Carboxymethyl)phenyl)acetamido)-5-(trifluoromethyl)phenyl)carbamoyl)(3-((1R,4R)-4-((dimethylamino)methyl)cyclohexyl)-1,2,3-oxadiazol-3-ium-5-yl)amide [Example 155]	0.1 to 1 µM	–	1 to 20 µM	–
CN(C)C[C@H]1CC[C@H]([n+]2cc([N-]C(=O)Nc3cc(NC(=O)Cc4ccccc4O)cc(C(F)(F)F)c3)on2)CC1 [Example 191, (3-((1R,4R)-4-((Dimethylamino)methyl)-cyclohexyl)-1,2,3-oxadiazol-3-ium-5-yl)((3-(2-(2-hydroxyphenyl)acetamido)-5-(trifluoromethyl)-phenyl)carbamoyl)amide]	1 to 20 µM	< 0.1 µM	–	–
CN(C)C[C@H]1CC[C@H]([n+]2cc([N-]C(=O)Nc3cc(NC(=O)Cc4ccccc4C(F)(F)F)cc(C(F)(F)F)c3)on2)CC1 [Example 166, (3-((1R,4R)-4-((Dimethylamino)methyl)-cyclohexyl)-1,2,3-oxadiazol-3-ium-5-yl)((3-(trifluoromethyl)-5-(2-(2-(trifluoromethyl)-phenyl)acetamido)phenyl)carbamoyl)amide]	0.1 to 1 µM	1 to 20 µM	–	–
O=C([N-]c1c[n+](CC23CCC(c4cncnc4)(CC2)C3)no1)Nc1ccnc(C(F)(F)F)c1 [Example 185, (3-((4-(Pyrimidin-5-yl)bicyclo[2.2.1]heptan-1-yl)methyl)-1,2,3-oxadiazol-3-ium-5-yl)((2-(trifluoromethyl)pyridin-4-yl)carbamoyl)amide]	0.1 to 1 µM	–	–	1 to 20 µM
CC(C(=O)Nc1cc(NC(=O)[N-]c2c[n+]([C@H]3CC[C@H](CN(C)C)CC3)no2)cc(C(F)(F)F)c1)c1ccccc1Cl (stereo partly drawn) [Example 205, ((3-(2-(2-Chlorophenyl)propanamido)-5-(trifluoromethyl)phenyl)carbamoyl)(3-((1R,4R)-4-((dimethylamino)methyl)cyclohexyl)-1,2,3-oxadiazol-3-ium-5-yl)amide]	0.1 to 1 µM	1 to 20 µM	–	–
Cc1ccccc1CC(=O)Nc1cc(NC(=O)[N-]c2c[n+]([C@H]3CC[C@H](C(=O)N(C)C)CC3)no2)cc(C(F)(F)F)c1 [Example 248, (3-((1R,4R)-4-(Dimethylcarbamoyl)-cyclohexyl)-1,2,3-oxadiazol-3-ium-5-yl)((3-(2-(o-tolyl)acetamido)-5-(trifluoromethyl)phenyl)-carbamoyl)amide]	< 0.1 µM	1 to 20 µM	–	–
Cc1ncnc(C)c1-c1ccc(C[n+]2cc([N-]C(=O)N[C@H]3CC[C@@]4(C3)CC4(F)F)on2)nc1 (racemic) [Example 180, rac-(((3R,5S)-1,1-Difluorospiro[2.4]heptan-5-yl)carbamoyl)(3-((5-(4,6-dimethylpyrimidin-5-yl)pyridin-2-yl)methyl)-1,2,3-oxadiazol-3-ium-5-yl)amide]	1 to 20 µM	–	–	1 to 20 µM
Cc1ccccc1CC(=O)Nc1cc(NC(=O)[N-]c2c[n+]([C@H]3CC[C@H](CO)CC3)no2)cc(C(F)(F)F)c1 [Example 228, (3-((1R,4R)-4-(Hydroxymethyl)cyclohexyl)-1,2,3-oxadiazol-3-ium-5-yl)((3-(2-(o-tolyl)acetamido)-5-(trifluoromethyl)phenyl)carbamoyl)amide]	0.1 to 1 µM	0.1 to 1 µM	–	–
O=C([N-]c1c[n+]([C@H]2CCC[C@H](c3cncnc3)C2)no1)Nc1ccnc(C(F)(F)F)c1 [Example 219, (3-((1S,3S)-3-(Pyrimidin-5-yl)cyclohexyl)-1,2,3-oxadiazol-3-ium-5-yl)((2-(trifluoromethyl)pyridin-4-yl)carbamoyl)amide]	0.1 to 1 µM	–	–	1 to 20 µM
O=C([N-]c1c[n+](C[C@H]2CC[C@H](c3cncnc3)CC2)no1)Nc1cccc(C(F)(F)F)c1 [Example 186, (3-(((1R,4R)-4-(Pyrimidin-5-yl)cyclohexyl)methyl)-1,2,3-oxadiazol-3-ium-5-yl)((3-(trifluoromethyl)phenyl)carbamoyl)amide]	0.1 to 1 µM	1 to 20 µM	–	–
Cc1ccccc1CC(=O)Nc1cc(NC(=O)[N-]c2c[n+]([C@H]3CCC[C@H](c4cncnc4)C3)no2)cc(C(F)(F)F)c1 [Example 221, (3-((1S,3S)-3-(Pyrimidin-5-yl)cyclohexyl)-1,2,3-oxadiazol-3-ium-5-yl)((3-(2-(o-tolyl)acetamido)-5-(trifluoromethyl)phenyl)carbamoyl)amide]	0.1 to 1 µM	–	–	1 to 20 µM
C[C@@H](C(=O)Nc1cc(NC(=O)[N-]c2c[n+]([C@H]3CC[C@H](CN(C)C)CC3)no2)cc(C(F)(F)F)c1)c1ccccc1 [Example 175, (3-((1R,4R)-4-((Dimethylamino)methyl)-cyclohexyl)-1,2,3-oxadiazol-3-ium-5-yl)((3-((R)-2-phenylpropanamido)-5-(trifluoromethyl)-phenyl)carbamoyl)amide]	< 0.1 µM	1 to 20 µM	–	–
O=C([N-]c1c[n+](Cc2ccc(-c3cncnc3)cc2)no1)Nc1ccnc(C(F)(F)F)c1 [Example 266, (3-(4-(Pyrimidin-5-yl)benzyl)-1,2,3-oxadiazol-3-ium-5-yl)((2-(trifluoromethyl)pyridin-4-yl)carbamoyl)amide]	< 0.1 µM	–	< 0.1 µM	–
COc1cc(NC(=O)[N-]c2c[n+](Cc3ccc(-c4c(C)ncnc4C)cc3)no2)ccn1 [Example 209, (3-(4-(4,6-Dimethylpyrimidin-5-yl)benzyl)-1,2,3-oxadiazol-3-ium-5-yl)((2-methoxypyridin-4-yl)carbamoyl)amide]	0.1 to 1 µM	–	–	1 to 20 µM
CN(C)C[C@H]1CC[C@H]([n+]2cc([N-]C(=O)Nc3cc(NC(=O)Cc4cccc(CC(N)=O)c4)cc(C(F)(F)F)c3)on2)CC1 [Example 162, ((3-(2-(3-(2-Amino-2-oxoethyl)phenyl)-acetamido)-5-(trifluoromethyl)phenyl)-carbamoyl)(3-((1R,4R)-4-((dimethylamino)-methyl)cyclohexyl)-1,2,3-oxadiazol-3-ium-5-yl)amide]	0.1 to 1 µM	1 to 20 µM	–	–
(3-((1R,4R)-4-((Dimethylamino)methyl)-cyclohexyl)-1,2,3-oxadiazol-3-ium-5-yl)((3-(2-(3- methoxyphenyl)acetamido)-5-(trifluoromethyl)- phenyl)carbamoyl)amide [Example 152]	0.1 to 1 µM	–	1 to 20 µM	–
Cc1ccccc1CC(=O)Nc1cc(NC(=O)[N-]c2c[n+](C[C@H]3CCCC[C@H]3O)no2)cc(C(F)(F)F)c1 [Example 217, (3-(((1R,2R)-2Hydroxycyclohexyl)methyl)-1,2,3-oxadiazol-3-ium-5-yl)((3-(2-(o-tolyl)acetamido)-5-(trifluoromethyl)phenyl)-carbamoyl)amide]	< 0.1 µM	–	–	< 0.1 µM
CN(C)[C@@H]1CCC[C@@H]([n+]2cc([N-]C(=O)Nc3cc(NC(=O)Cc4ccccc4)cc(C(F)(F)F)c3)on2)C1 [Example 173, (3-((1R,3R)-3-(Dimethylamino)cyclohexyl)-1,2,3-oxadiazol-3-ium-5-yl)((3-(2-phenylacetamido)-5-(trifluoromethyl)phenyl)-carbamoyl)amide]	< 0.1 µM	–	–	0.1 to 1 µM
CN(C)[C@H]1CCC[C@@H]([n+]2cc([N-]C(=O)Nc3ccnc(C(F)(F)F)c3)on2)C1 [Example 204, (3-((1R,3S)-3-(Dimethylamino)cyclohexyl)-1,2,3-oxadiazol-3-ium-5-yl)((2-(trifluoromethyl)-pyridin-4-yl)carbamoyl)amide]	0.1 to 1 µM	–	–	1 to 20 µM
CN(C)C[C@H]1CC[C@H]([n+]2cc([N-]C(=O)Nc3cc(NC(=O)Cc4cccc(F)c4F)cc(C(F)(F)F)c3)on2)CC1 [Example 169, ((3-(2-(2,3-Difluorophenyl)acetamido)-5-(trifluoromethyl)phenyl)carbamoyl)(3-((1R,4R)-4-((dimethylamino)methyl)cyclohexyl)-1,2,3-oxadiazol-3-ium-5-yl)amide]	< 0.1 µM	0.1 to 1 µM	–	–
CNC(=O)[C@@H]1CCC[C@@H]([n+]2cc([N-]C(=O)Nc3cc(NC(=O)Cc4ccccc4C)cc(C(F)(F)F)c3)on2)C1 [Example 231, (3-((1R,3R)-3-(Methylcarbamoyl)cyclohexyl)-1,2,3-oxadiazol-3-ium-5-yl)((3-(2-(o-tolyl)acetamido)-5-(trifluoromethyl)phenyl)-carbamoyl)amide]	< 0.1 µM	–	–	1 to 20 µM
CC(=O)Nc1ccc(NC(=O)[N-]c2c[n+](Cc3ccc(-c4c(C)ncnc4C)cc3)no2)cc1C(F)(F)F [Example 264, ((4-Acetamido-3-(trifluoromethyl)phenyl)-carbamoyl)(3-(4-(4,6-dimethylpyrimidin-5-yl)benzyl)-1,2,3-oxadiazol-3-ium-5-yl)amide]	< 0.1 µM	–	–	< 0.1 µM

Reference: EP4563146A1 (IRBM S.P.A., priority 2023, dated 2025)
